Experimental data taken from patent US9695154B2, “Heteroaryl inhibitors of sumo activating enzyme” (MILLENNIUM PHARMACEUTICALS, INC., priority 2013, dated 2017).

Biological target: T1, recombinant human SAE enzyme (Homo sapiens, UniProt Q9UBT2)
T1 sequence (Q9UBT2 1-640): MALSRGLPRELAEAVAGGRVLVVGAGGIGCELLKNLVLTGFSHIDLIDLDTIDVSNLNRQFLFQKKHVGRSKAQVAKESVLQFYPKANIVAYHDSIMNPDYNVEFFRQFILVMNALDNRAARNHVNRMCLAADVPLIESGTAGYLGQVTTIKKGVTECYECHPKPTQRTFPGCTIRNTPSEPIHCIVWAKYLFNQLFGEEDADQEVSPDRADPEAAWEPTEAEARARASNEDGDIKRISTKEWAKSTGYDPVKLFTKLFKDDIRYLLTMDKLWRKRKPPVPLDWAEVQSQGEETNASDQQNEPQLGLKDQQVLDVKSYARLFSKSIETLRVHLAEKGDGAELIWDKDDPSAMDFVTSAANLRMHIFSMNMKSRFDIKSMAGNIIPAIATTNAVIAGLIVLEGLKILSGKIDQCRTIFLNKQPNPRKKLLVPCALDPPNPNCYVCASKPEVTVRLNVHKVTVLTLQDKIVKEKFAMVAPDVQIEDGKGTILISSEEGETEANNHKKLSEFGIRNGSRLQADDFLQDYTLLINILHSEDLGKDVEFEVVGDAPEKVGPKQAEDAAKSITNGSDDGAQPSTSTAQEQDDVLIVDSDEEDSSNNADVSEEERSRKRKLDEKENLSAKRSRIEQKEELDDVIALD
T1 sequence (Q9UBE0 1-346 partner): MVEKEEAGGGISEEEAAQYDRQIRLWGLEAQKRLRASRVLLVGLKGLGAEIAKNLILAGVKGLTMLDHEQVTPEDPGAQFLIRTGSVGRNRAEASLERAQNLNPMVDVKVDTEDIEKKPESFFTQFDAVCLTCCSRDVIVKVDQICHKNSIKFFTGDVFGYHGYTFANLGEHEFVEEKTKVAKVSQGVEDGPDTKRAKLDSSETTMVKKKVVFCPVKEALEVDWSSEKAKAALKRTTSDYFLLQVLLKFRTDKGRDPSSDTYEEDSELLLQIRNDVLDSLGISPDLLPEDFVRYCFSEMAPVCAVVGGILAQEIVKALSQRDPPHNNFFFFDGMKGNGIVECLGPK
Assay: SAE HTRF Enzyme Assay
Format: biochemical
Settings: for IC50: class symbols A-C; for inhibition at 0.111 µM: compound concentration 0.111 μM, read-out: Percent Inhibition
Procedure, shortened: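 Sumoylation of Ubc9-GST by recombinant human SAE was followed by time-resolved FRET between Eu-cryptate anti-Flag and allophycocyanin anti-GST antibodies. The enzyme step used low ATP (0.5 μM) at pH 7.5 and ran 105 min at 24° C.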

`C=CS(=O)(=O)c1cccc(Cn2ccc(C(=O)c3cncnc3N[C@@H]3C[C@H](COS(N)(=O)=O)[C@@H](O)[C@H]3O)n2)c1` [Compound I-321, [(1R,2R,3S,4R)-2,3-Dihydroxy-4-{[5-({1-[3-(vinylsulfonyl)benzyl]-1H-pyrazol-3-yl}carbonyl)pyrimidin-4-yl]amino}cyclopentyl]methyl sulfamate] showed an IC50 of 10 to 100 nM and an inhibition at 0.111 µM of 89%.
In the case of `NS(=O)(=O)OC[C@H]1C[C@@H](Nc2ncncc2C(=O)c2ccn(Cc3cc4ccccc4s3)c2)[C@@H](F)[C@@H]1O` [Compound I-322, {(1R,2R,3R,4R)-4-[(5-{[1-(1-benzothiophen-2-ylmethyl)-1H-pyrrol-3-yl]carbonyl}pyrimidin-4-yl)amino]-3-fluoro-2-hydroxycyclopentyl}methyl sulfamate], the IC50 is reported as under 10 nM and the inhibition at 0.111 µM is reported as 99%.
Compound `NS(=O)(=O)OC[C@H]1C[C@@H](Nc2ncncc2C(=O)c2ccn(Cc3cc(Br)ccn3)n2)[C@H](O)[C@@H]1O` [Compound I-324, [(1R,2R,3S,4R)-4-{[5-({1-[(4-bromopyridin-2-yl)methyl]-1H-pyrazol-3-yl}carbonyl)pyrimidin-4-yl]amino}-2,3-dihydroxycyclopentyl]methyl sulfamate] has an IC50 of under 10 nM and an inhibition at 0.111 µM of 100%.
`COc1cccc(Cn2ccc(C(=O)c3cncnc3N[C@@H]3C[C@H](COS(N)(=O)=O)[C@@H](O)[C@H]3O)n2)c1` [Compound I-325, {(1R,2R,3S,4R)-2,3-dihydroxy-4-[(5-{[1-(3-methoxybenzyl)-1H-pyrazol-3-yl]carbonyl}pyrimidin-4-yl)amino]cyclopentyl}methyl sulfamate] gave an IC50 of under 10 nM and an inhibition at 0.111 µM of 99%.
`NS(=O)(=O)OC[C@H]1C[C@@H](Nc2ncncc2C(=O)c2ccn(Cc3cc(F)c(F)c(F)c3)n2)[C@H](O)[C@@H]1O` [Compound I-326, {(1R,2R,3S,4R)-2,3-dihydroxy-4-[(5-{[1-(3,4,5-trifluorobenzyl)-1H-pyrazol-3-yl]carbonyl}pyrimidin-4-yl)amino]cyclopentyl}methyl sulfamate] was tested, and the IC50 was under 10 nM and the inhibition at 0.111 µM was 95%.
Compound `NS(=O)(=O)OC[C@H]1C[C@@H](Nc2ncncc2C(=O)c2ccn(Cc3cccc(F)c3F)n2)[C@H](O)[C@@H]1O` [Compound I-327, {(1R,2R,3S,4R)-4-[(5-{[1-(2,3-difluorobenzyl)-1H-pyrazol-3-yl]carbonyl}pyrimidin-4-yl)amino]-2,3-dihydroxycyclopentyl}methyl sulfamate] has an IC50 of under 10 nM and an inhibition at 0.111 µM of 99%.
`NS(=O)(=O)OC[C@H]1C[C@@H](Nc2ncncc2C(=O)c2ccn(Cc3ccc(F)cc3C(F)(F)F)n2)C[C@@H]1O` [Compound I-328, [(1R,2S,4R)-4-{[5-({1-[4-fluoro-2-(trifluoromethyl)benzyl]-1H-pyrazol-3-yl}carbonyl)pyrimidin-4-yl]amino}-2-hydroxycyclopentyl]methyl sulfamate] gave an IC50 of 10 to 100 nM and an inhibition at 0.111 µM of 65%.
Compound `NS(=O)(=O)OC[C@H]1C[C@@H](Nc2ncncc2C(=O)c2ccn(Cc3cc(F)c(F)cc3F)n2)C[C@@H]1O` [Compound I-329, {(1R,2S,4R)-2-hydroxy-4-[(5-{[1-(2,4,5-trifluorobenzyl)-1H-pyrazol-3-yl]carbonyl}pyrimidin-4-yl)amino]cyclopentyl}methyl sulfamate] has an IC50 of under 10 nM and an inhibition at 0.111 µM of 93%.
In the case of `C#CCn1ccc(C(=O)c2cncnc2N[C@@H]2C[C@H](COS(N)(=O)=O)[C@@H](O)C2)c1` [Compound I-330, {(1R,2S,4R)-2-hydroxy-4-[(5-{[1-{prop-2-yn-1-yl)-1H-pyrrol-3-yl]carbonyl}pyrimidin-4-yl)amino]cyclopentyl}methyl sulfamate], the IC50 is reported as 10 to 100 nM and the inhibition at 0.111 µM is reported as 82%.
For `NS(=O)(=O)OC[C@H]1C[C@@H](Nc2ncncc2C(=O)c2ccn(Cc3ccc(Cl)c(Cl)c3)c2)[C@@H](F)[C@@H]1O` [Compound I-331, {(1R,2R,3R,4R)-4-[(5-{[1-(3,4-dichlorobenzyl)-1H-pyrrol-3-yl]carbonyl}pyrimidin-4-yl)amino]-3-fluoro-2-hydroxycyclopentyl}methyl sulfamate], the IC50 was under 10 nM and the inhibition at 0.111 µM was 99%.
